Key:
[1] = Solubility of DMPA in solvents and solvent blends (mixed on shaker, appearance observed); format: physicochemical; settings: for affinity in terms of solubility toward DMPA: neat solvent, weight ratio solvent:DMPA 9:1, room temperature (23° C.), FIG. 2
Method: At room temperature (23° C.), 1 gram (g) of DMPA and 9 g solvent are added into a glass bottle and mixed on a shaker for 30 minutes. After shaking, the appearance of the mixture in each bottle is observed for solubility. The solvent is either neat dialkyl amide or a blend of dialkyl amide with PROGLYDE™ DMM dipropylene glycol dimethyl ether. Blends are prepared in three blend ratios: 2:1, 1:1, and 1:2 ether:dialkyl amide.
At room temperature (23° C.), 1 g DMPA and various weights of solvent are added into a glass bottle, then mixed for 30 minutes before checking the appearance.
(§1) The vapor pressures versus temperature profiles of neat PROGLYDE™ DMM dipropylene glycol dimethyl ether, neat N,N-DMPA, and of three different blends of dipropylene glycol dimethyl ether and N,N-DMPA containing 83 wt %, 55 wt %, and 35 wt % dipropylene glycol dimethyl ether respectively are measured in an ebulliometer in the 5-760 millimeters of mercury (mmHg) pressure range by ASTM E1719 to obtain Antoine constants and the normal boiling points of pure components and blends. Pseudo-azeotropes and actual minimum boiling azeotropes are indicated by a normal boiling point which is lower than the boiling point of either of the neat components. The solubility of DMPA in these blends is also evaluated at 25° C. at the DMPA:solvent blend ratio of 1:9. The composition of the blends is detailed in Table 1 below: […]

[2] = Vapor pressure versus temperature profiles and normal boiling points in ebulliometer (ASTM E1719); format: physicochemical
Method: as §1

Compound	solubility of DMPA in N,N-DMPA at different weight ratios ([1]; dialkyl amide to DMPA 3:1 to 8:1, 23° C., FIG. 4)	affinity in terms of solubility toward DMPA [1]	normal boiling point [2]
CCC(=O)N(C)C [N,N-DMPA, N,N-dimethylpropionamide]	can dissolve DMPA effectively	good affinity toward DMPA	175.186 °C
COCCC(=O)N(C)C [M3-N,N-DMPA, 3-methoxy-N,N-dimethyl propionamide]		good affinity toward DMPA	
CCN(CC)C(C)=O [N,N-DEAC, N,N-diethylacetamide]		good affinity toward DMPA	
COCC(C)OCC(C)OC (stereo not drawn) [dipropylene glycol dimethyl ether, reference compound]			174.931 °C

Source: patent US11267925B2, “Water-based polyurethane dispersions and their preparation” (Dow Global Technologies LLC, priority 2017, dated 2022)
